Reference: patent US20040034003A1, “7-Hydroxy-16alpha-fluoro-5-androsten-17-ones and 7-hydroxy-16alpha-fluoro-5-androstan-17-ones and derivatives thereof” (priority 2002, published 2004)
“And” between values parts separate entries of the source, which are not always exact repeats. Equal values may be shown once.

Tested on: TPA-Induced DNA Synthesis in Mouse Epidermis
Test: TPA-induced DNA synthesis in mouse epidermis: [3H]thymidine incorporation and epidermal DNA content of a 2x2 cm2 skin section
Format: in vivo
Conditions: for μg DNA / corrected cpm / cpm/μg DNA / cpm: individual mouse; for dose producing a nadir in [3H]thymidine incorporation / dose producing an overstimulation of [3H]thymidine incorporation: s.c.; for lowest effective dose which suppresses TPA-stimulated epidermal [3H]thymidine incorporation and DNA content: mice
Experimental: Epidermal hypeplasia is determined by measuring the stimulation in [^3H] thymidine incorporation as well as epidermal DNA content of a 2×2 cm^2 section of skin twenty hours after TPA application.
In prior experiments, 16α-fluoro-5-androsten-17-one was administered in escalating doses by the oral subcutaneous, intraperitoneal, and buccal routes of administration, and the effect on TPA-stimulated epidermal [^3H] thymidine incorporation and epidermal DNA content was determined.
In this experiment, the effect of treating mice subcutaneously (s.c.) with suspensions of 7α-hydroxy-16α-flouro-5-androsten-17-one and suspensions of 16aflouro-5-androsten-17-one were investigated.
Variousl6α-flouro-5-androsten-17 one suspensions (Q) were prepared. The vehicle was 95% saline (0.9% NaCl) and 5% Emulphor. For the 5 mg/kg s.c. suspension, 25.3 mg was suspended in 10 mL of Emulphor-saline. The other suspensions were made by diluting the 5 mg/kg suspension. For the 2.5 mg/kg suspension, 1 mL of 5mg/kg s.c. suspension was diluted to a final volume of 2mL, for the 1 m/kg suspension 1 mL of the 5 mg/kg suspension was made to a total of 5 mL, while for the 0.125 mg/kg suspension, 0.5 mL of the 5 mg/kg suspension was made to a final volume of 20 mL. Magnetic stir bars were added to the suspensions which were kept on a magnetic stirrer.
7α-hydroxy-16α-flouro-5-androsten-17-one was prepared as described hereinabove. For the 5 mg/kg s.c. suspension, 16.3 mg was suspended in 6.5 mL of Emulphor-saline. The other suspensions were made by diluting the 5 mg/kg suspension. For the 2.5 mg/kg, 1 mL of 5 mg/kg suspension was diluted to a final volume of 2 mL, for the 1 mg/kg suspension 1 mL of the 5 mg/kg suspension was made to total 5 mL, while for the 0.125 mg/kg suspension, 0.5 mL of the 5 mg/kg suspension was made up to final volume of 20 mL. Magnetic stir bars were added to the suspensions and the suspensions were kept on a magnetic stirrer.
Female CD-1 mice were obtained from Charles River Laboratories, Wilmington, Mass. at 44-46 days of age. The mice were housed two to three per cage in plastic shoebox cages on Alphacel bedding with 12 hours of alternating light and dark in the CAF Animal Facility, 6th floor, Pharmacy Building. The mice had ad libitum access-to Purina 5015 chow and acidified tap water (pH≦2.6). The mice were allowed to acclimate to the facility for one week prior to use in an experiment. Three days after obtaining the mice, the mice were shaved and weighed. Only those mice showing no hair regrowth were used in the experiment.
Four days after the mice were shaved, they were treated as follows:
The mice were sacrificed 20 hours after treatment by an overdose of CO2. Twenty minutes prior to sacrifice, the mice were injected with 60 μCi of [^3H]thymidine (Amersham Batch 297). The mice were treated with a depilatory to remove any residual hair. A 2×2 cm^2 piece of skin was excised, placed in ice water for 30 seconds, then in 55° C. water for 30 seconds, then ice water again for 30 seconds. The epidermis was scrapped off using a scalpel and the scrapings were placed into ice cold 0.4N TCA (trichloroacetic acid). The scrapings were homogenized using a Tekmar Tissumizer (80% power for 30 seconds). The homogenates were centrifuged for 20 minutes at 3,000×g. The precipitates were washed 3× with 0.2N TCA, and 2× with absolute ethanol. The DNA in each sample was hydrolyzed with 0.5N TCA for 30 minuts at 90°. The tubes were centrifuged for 20 minutes at 3000×g. A 0.2 mL aliquot of each hydrolysate was counted in a LKB Rackbeta scintillation counter using Scintiverse II BD as the counting medium. DNA content was determined by the Burton diphenylamine assay.
Various suspensions were prepared of 16α-fluoro-5-androsten-17-one as follows. The vehicle was 95% saline (0.9% NaCl) and 5% Emulphor. For the 5 mg/kg s.c. suspension, 27.8 mg was suspended in 11.4 mL of Emulphor-saline. The other suspensions were made by diluting the 5 mg/kg suspension. […]

[1] = Example 4, 0.125 mg/kg s.c. 1 h before topical TPA 2 μg, 20 h, 0.125 mg/kg
[2] = Example 4, 1 mg/kg s.c. 1 h before topical TPA 2 μg, 20 h, 1 mg/kg
[3] = Example 4, 2.5 mg/kg s.c. 1 h before topical TPA 2 μg, 20 h, 2.5 mg/kg
[4] = Example 4, 5 mg/kg s.c. 1 h before topical TPA 2 μg, 20 h, 5 mg/kg
[5] = Example 5, 1 mg/kg s.c. 1 h before topical TPA 2 μg, 20 h, listed as Fluasterone, 1 mg/kg
[6] = Example 5, 2.5 mg/kg s.c. 1 h before topical TPA 2 μg, 20 h, listed as Fluasterone, 2.5 mg/kg
[7] = Example 5, 5 mg/kg s.c. 1 h before topical TPA 2 μg, 20 h, listed as Fluasterone, 5 mg/kg
[8] = prior experiments, escalating doses, oral, subcutaneous, intraperitoneal and buccal routes

## C[C@]12CCCCC1=CC[C@@H]1[C@@H]2CC[C@]2(C)C(=O)[C@H](F)C[C@@H]12 [Q, 16α-fluoro-5-androsten-17-one, reference compound]
Example 4, 0.125 mg/kg s.c. 1 h before topical TPA 2 μg, 20 h, Burton diphenylamine assay, 0.125 mg/kg
  μg DNA: 10.0 µg and 9.1 µg
Example 4, 0.125 mg/kg s.c. 1 h before topical TPA 2 μg, 20 h
  cpm/μg DNA (group average ±): 441.5 ± 133.4 cpm/μg DNA
[1]
  corrected cpm: 3,471.0 cpm and 4,876.0 cpm
  cpm/μg DNA: 347.1 cpm/μg DNA and 535.8 cpm/μg DNA
Example 4, 0.125 mg/kg s.c. 1 h before topical TPA 2 μg, female CD-1 mice, 20 h after treatment, 0.125 mg/kg
  cpm: 3,496.0 cpm and 4,901.0 cpm
Example 4, 1 mg/kg s.c. 1 h before topical TPA 2 μg, 20 h
  cpm/μg DNA (group average ±): 236.4 ± 46.5 cpm/μg DNA
[2]
  corrected cpm: 1,811.0 cpm and 2,750.1 cpm
  cpm: 1,836.0 cpm and 2,775.1 cpm
  cpm/μg DNA: 203.5 cpm/μg DNA and 269.6 cpm/μg DNA
  μg DNA: 8.9 µg and 10.2 µg
Example 4, 2.5 mg/kg s.c. 1 h before topical TPA 2 μg, 20 h
  cpm/μg DNA (group average ±): 173.3 ± 11.3 cpm/μg DNA
[3]
  corrected cpm: 1,251.0 cpm and 1,207.0 cpm
  cpm: 1,276.0 cpm and 1,232.0 cpm
  cpm/μg DNA: 181.3 cpm/μg DNA and 165.3 cpm/μg DNA
  μg DNA: 6.9 µg and 7.3 µg
Example 4, 5 mg/kg s.c. 1 h before topical TPA 2 μg, 20 h
  cpm/μg DNA (group average ±): 1105.5 ± 28.4 cpm/μg DNA
[4]
  corrected cpm: 8,249.0 cpm and 10,018.0 cpm
  cpm: 8,274.0 cpm and 10,043.0 cpm
  cpm/μg DNA: 1,085.4 cpm/μg DNA and 1,125.6 cpm/μg DNA
  μg DNA: 7.6 µg and 8.9 µg
Example 4
  dose producing a nadir in [3H]thymidine incorporation: 2.5 mg/kg
  dose producing an overstimulation of [3H]thymidine incorporation: 5 mg/kg
Example 5, 1 mg/kg s.c. 1 h before topical TPA 2 μg, 20 h
  cpm/μg DNA (group average ±): 170.3 ± 21.7 cpm/μg DNA
[5]
  corrected cpm: 2,691.0 cpm and 2,741.0 cpm
  cpm/μg DNA: 185.6 cpm/μg DNA and 154.9 cpm/μg DNA
  μg DNA: 14.5 µg and 17.7 µg
Example 5, 1 mg/kg s.c. 1 h before topical TPA 2 μg, female CD-1 mice, 20 h, listed as Fluasterone, 1 mg/kg
  cpm: 2,717.0 cpm and 2,767.0 cpm
Example 5, 2.5 mg/kg s.c. 1 h before topical TPA 2 μg, 20 h
  cpm/μg DNA (group average ±): 81.4 ± 12.0 cpm/μg DNA
[6]
  corrected cpm: 496.0 cpm and 566.0 cpm
  cpm: 522.0 cpm and 592.0 cpm
  cpm/μg DNA: 72.9 cpm/μg DNA and 89.8 cpm/μg DNA
  μg DNA: 6.8 µg and 6.3 µg
Example 5, 5 mg/kg s.c. 1 h before topical TPA 2 μg, 20 h
  cpm/μg DNA (group average ±): 258.8 ± 12.0 cpm/μg DNA
[7]
  corrected cpm: 2,192.0 cpm and 1,777.0 cpm
  cpm: 2,218.0 cpm and 1,803.0 cpm
  cpm/μg DNA: 267.3 cpm/μg DNA and 250.3 cpm/μg DNA
  μg DNA: 8.2 µg and 7.1 µg
Example 5
  dose producing a nadir in [3H]thymidine incorporation: 2.5 mg/kg
  dose producing an overstimulation of [3H]thymidine incorporation: 5 mg/kg
Prior experiments, buccal route
  lowest effective dose which suppresses TPA-stimulated epidermal [3H]thymidine incorporation and DNA content: 2.5 to 5 mg/kg
[8]
  dose response for [3H]thymidine incorporation (in words): U-shaped dose response
  epidermal DNA content as the dose increased (in words): remained suppressed
Prior experiments, intraperitoneal route
  lowest effective dose which suppresses TPA-stimulated epidermal [3H]thymidine incorporation and DNA content: 5 mg/kg
Prior experiments, oral route
  lowest effective dose which suppresses TPA-stimulated epidermal [3H]thymidine incorporation and DNA content: 200 mg/kg
Prior experiments, subcutaneous route
  lowest effective dose which suppresses TPA-stimulated epidermal [3H]thymidine incorporation and DNA content: 2.5 mg/kg
Prior finding
  TPA-induced epidermal hyperplasia in mice (in words): inhibits
